In patent US20210403567A1, “METHODS OF TREATING CERVICAL CANCER BY ADMINISTERING A PD-1 INHIBITOR” (priority 2020, published 2021):
“Also recorded” adds a separate entry of the source.

Key:
[1] = test system: recurrent or metastatic cervical cancer; assay: Phase 3 trial, cemiplimab versus IC chemotherapy: quality of life, EORTC QLQ-C30 (GHS/QoL, functioning and symptom scales), MMRM LS mean change from baseline; assay type: in vivo, human
Method: QOL is measured by the EORTC QLQ-C30.
Quality of Life Questionnaires: Patient-reported outcomes are measured using the validated patient self-administered EORTC QLQ-C30 questionnaire. Patients are asked to complete these questionnaires prior to any study procedures being performed at a given study visit (during the on-study/treatment and follow-up periods).
QoL: Longitudinal change from baseline at each PRO assessment in the GHS/QoL and PF scales was analyzed using a mixed model with repeated measures (MMRM). Higher scores on these scales indicate better health status/function. […] The model generated least squares (LS) mean estimates, standard errors, 95% CIs and p-values (where applicable) for mean changes from baseline on each PRO assessment.
At baseline and Day 1 of each treatment cycle (up to 16), patients were administered the EORTC QLQ-030. Mixed-effects repeated measures models estimated least squares (LS) mean change from baseline across all scales. Responder analyses determined the proportions with clinically meaningful (using 10-point threshold) improvement or deterioration, or stability on QLQ-030.

cervical cancer = assay: Dose escalation cohort of the cemiplimab first-in-human study, cervical cancer patients; assay type: in vivo; settings: one cervical squamous patient, earlier response to cemiplimab+hfRT in dose escalation
From the text: (Papadopoulos et al., Clin Cancer Res (December 2019) Epub). The sum total equates to a 17% objective response rate among cervical cancer patients enrolled in the phase I study (4/23 combined; 2/3 responding patients in dose escalation plus 2/20 in expansion cohorts). All responders had squamous histology.

[2] = SCC patients, Overall Across Cycles
[3] = overall population, Overall Across Cycles

Substance: cemiplimab
- LS mean change from baseline, EORTC QLQ-C30 GHS/QoL ([1]; SCC patients, C5D1): 0.85
- LS mean change from baseline, EORTC QLQ-C30 Physical Functioning ([1]; SCC patients, C5D1): −0.17
- Difference in LS mean change, Cemiplimab versus Chemotherapy, GHS/QoL ([1]; SCC patients, C6D1): 6.83
- Difference in LS mean change, Cemiplimab versus Chemotherapy, Physical Functioning ([1]; SCC patients, C6D1): 7.11
- LS mean change from baseline, EORTC QLQ-C30 GHS/QoL ([1]; SCC patients, C6D1): −0.17
- LS mean change from baseline, EORTC QLQ-C30 Physical Functioning ([1]; SCC patients, C6D1): 0.82
- Difference in LS mean change, Cemiplimab versus Chemotherapy, GHS/QoL ([1]; SCC patients, C7D1): 11.25
- Difference in LS mean change, Cemiplimab versus Chemotherapy, Physical Functioning ([1]; SCC patients, C7D1): 14.30
- LS mean change from baseline, EORTC QLQ-C30 GHS/QoL ([1]; SCC patients, C7D1): 2.09
- LS mean change from baseline, EORTC QLQ-C30 Physical Functioning ([1]; SCC patients, C7D1): −0.07
- Difference in LS mean change, Cemiplimab versus Chemotherapy, GHS/QoL [1, 2]: 8.49
- Difference in LS mean change, Cemiplimab versus Chemotherapy, Physical Functioning [1, 2]: 8.35
- LS mean change from baseline, EORTC QLQ-C30 GHS/QoL [1, 2]: 1.18
- LS mean change from baseline, EORTC QLQ-C30 Physical Functioning [1, 2]: 1.01
- Difference in LS mean change, Cemiplimab versus Chemotherapy, GHS/QoL ([1]; overall population, C2D1): 3.25
- LS mean change from baseline, EORTC QLQ-C30 GHS/QoL ([1]; overall population, C2D1): −1.03
- LS mean change from baseline, EORTC QLQ-C30 Physical Functioning ([1]; overall population, C2D1): −2.41
- Difference in LS mean change, Cemiplimab versus Chemotherapy, GHS/QoL ([1]; overall population, C3D1): 7.41
- Difference in LS mean change, Cemiplimab versus Chemotherapy, Physical Functioning ([1]; overall population, C3D1): 6.02
- LS mean change from baseline, EORTC QLQ-C30 GHS/QoL ([1]; overall population, C3D1): 1.19
- LS mean change from baseline, EORTC QLQ-C30 Physical Functioning ([1]; overall population, C3D1): 0.49
- Difference in LS mean change, Cemiplimab versus Chemotherapy, GHS/QoL ([1]; overall population, C4D1): 10.55
- Difference in LS mean change, Cemiplimab versus Chemotherapy, Physical Functioning ([1]; overall population, C4D1): 932
- LS mean change from baseline, EORTC QLQ-C30 GHS/QoL ([1]; overall population, C4D1): 4.47
- LS mean change from baseline, EORTC QLQ-C30 Physical Functioning ([1]; overall population, C4D1): 2.38
- Difference in LS mean change, Cemiplimab versus Chemotherapy, GHS/QoL ([1]; overall population, C5D1): 5.66
- Difference in LS mean change, Cemiplimab versus Chemotherapy, Physical Functioning ([1]; overall population, C5D1): 6.74
- LS mean change from baseline, EORTC QLQ-C30 GHS/QoL ([1]; overall population, C5D1): 0.48
- LS mean change from baseline, EORTC QLQ-C30 Physical Functioning ([1]; overall population, C5D1): −1.27
- Difference in LS mean change, Cemiplimab versus Chemotherapy, GHS/QoL ([1]; overall population, C6D1): 5.44
- Difference in LS mean change, Cemiplimab versus Chemotherapy, Physical Functioning ([1]; overall population, C6D1): 6.93
- LS mean change from baseline, EORTC QLQ-C30 GHS/QoL ([1]; overall population, C6D1): −0.29
- LS mean change from baseline, EORTC QLQ-C30 Physical Functioning ([1]; overall population, C6D1): −1.34
- Difference in LS mean change, Cemiplimab versus Chemotherapy, GHS/QoL ([1]; overall population, C7D1): 8.30
- Difference in LS mean change, Cemiplimab versus Chemotherapy, Physical Functioning ([1]; overall population, C7D1): 11.66
- LS mean change from baseline, EORTC QLQ-C30 GHS/QoL ([1]; overall population, C7D1): 3.32
- LS mean change from baseline, EORTC QLQ-C30 Physical Functioning ([1]; overall population, C7D1): −0.10
- Difference in LS mean change, Cemiplimab versus Chemotherapy, GHS/QoL ([1]; overall population, C8D1): 14.08
- Difference in LS mean change, Cemiplimab versus Chemotherapy, Physical Functioning ([1]; overall population, C8D1): 12.96
- LS mean change from baseline, EORTC QLQ-C30 GHS/QoL ([1]; overall population, C8D1): −1.09
- LS mean change from baseline, EORTC QLQ-C30 Physical Functioning ([1]; overall population, C8D1): −0.89
- course of GHS/QoL from baseline ([1]; overall population, EORTC QLQ-C30): improved or maintained GHS/QoL from baseline; also recorded: generally improve or maintain their baseline GHS/QOL
- Difference in LS mean change, Cemiplimab versus Chemotherapy, GHS/QoL [1, 3]: 7.81
- Difference in LS mean change, Cemiplimab versus Chemotherapy, Physical Functioning [1, 3]: 8.26
- LS mean change from baseline, EORTC QLQ-C30 GHS/QoL [1, 3]: 1.01
- LS mean change from baseline, EORTC QLQ-C30 Physical Functioning [1, 3]: −0.45
- response to retreatment after disease recurrence (cervical cancer): complete response
